Residues, ends and D or L forms follow the SMILES beside them. *: point of attachment. ACC = NC(=O)Cc1cc(=O)oc2cc(N*)ccc12

The source of these data is US6797461B2, “Tryptase substrates and assay for tryptase activity using same” (Promega Corporation, priority 2000, dated 2004).

Common to all, as to type: biochemical
Assay [1] relates to T1, recombinant human β-II tryptase (lung tryptase) (Homo sapiens, N132K).
T1 construct: Secreted mature βI- and βII-tryptases were purified to homogeneity; made in house; host or cells: Pichia pastoris GS115
Briefly: Single substrate kinetic analysis of fluorogenic ACC substrates, lung (β-II) tryptase. Here is the method: (§1) βI- and βII-tryptase concentrations ranged from 5 nM to 15 nM. The final concentration of substrate ranged from 5 μM to 200 μM; the concentration of DMSO in the assay was less than 5%. Hydrolysis of ACC substrates was monitored fluorometrically with an excitation wavelength of 380 nm and an emission wavelength of 460 nm on a Fluoromax-2 spectrofluorimeter.
(§2) Tryptase activity was monitored at 30° C. in assay buffer containing 100 mM HEPES, pH 7.5, 10% w/v glycerol, and 0.1 mg/ml heparin. Substrate stock solutions were prepared in DMSO. The final concentration of substrate ranged from 5 μM to […], the concentration of DMSO in the assay was less than 5%. Tryptase concentration was 5 nM.
(§3) Hydrolysis of ACC substrates was monitored fluorometrically with an excitation wavelength of 380 nm and emission wavelength of 450 nm on a Fluoromax-2 spectrofluorimeter. The amino-terminus of each polypeptide was acetylated.
(§4) To quantitate tryptase βI and βII dependence on extended substrate specificity, several peptide substrates were synthesized and the kinetic constants determined for each of the enzymes. […] All of these effects are manifested in the Km term, not the kcat term.
(§5) Kinetic parameters were independently obtained for both recombinant β-I and β-II tryptases against rational substitutions in the substrates at P2-P4 positions.

Assay [2] concerns the target T2, recombinant human β-I tryptase (skin tryptase) (Homo sapiens, UniProt Q15661).
T2 construct: Secreted mature βI- and βII-tryptases were purified to homogeneity; made in house; host or cells: Pichia pastoris
Briefly: Single substrate kinetic analysis of fluorogenic ACC substrates, skin (β-I) tryptase. Here is the method: as §1, §2, §3, §4, §5

The subject of assay [3] is non-tryptase proteolysis in human serum. Briefly: Non-tryptase proteolytic activities in serum with protease inhibitors (FIG. 9). The note with it: 25 μg/ml, 30 minutes at room temperature, Ac-PRNK-ACC 100 μM. Here is the method: Human recombinant β-I tryptase (Promega) was two-fold serially diluted in human serum from 10,000 pg to 190 pg/ml. Aprotinin, Soybean trypsin inhibitor (SBTI) or anti-trypsin was added to each dilution at 25 μg/ml and allowed to incubate at room temperature for 30 minutes. An uninhibited serum standard curve was similarly created. 100 μl of each treated and untreated serum dilution was pipetted in triplicate to a microtiter well plate. Ac-PRNK-ACC (SEQ. ID. NO: 12) was added to 100 μM and the plate incubated at room temperature for 10 minutes prior to reading at an excitation wavelength of 355 nm and emission wavelength of 460 nm.

[4] abbreviates: Lung (β-II) Tryptase, 30° C., 100 mM HEPES pH 7.5, 10% glycerol, 0.1 mg/ml heparin.
Setting [5] is: Skin (β-I) Tryptase, 30° C., 100 mM HEPES pH 7.5, 10% glycerol, 0.1 mg/ml heparin.

T2 sequence (Q15661 31-275): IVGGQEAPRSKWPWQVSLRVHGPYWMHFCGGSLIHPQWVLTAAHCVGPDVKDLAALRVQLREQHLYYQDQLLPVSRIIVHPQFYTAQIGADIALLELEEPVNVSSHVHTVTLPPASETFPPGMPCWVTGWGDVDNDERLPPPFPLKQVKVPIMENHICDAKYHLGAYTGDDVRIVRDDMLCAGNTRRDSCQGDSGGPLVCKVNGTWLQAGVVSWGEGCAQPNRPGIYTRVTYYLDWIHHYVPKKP
T1 sequence (Q15661 31-275 N132K): as the sequence (Q15661 31-275) above, with N102K counted along it

`CC(=O)N1CCC[C@H]1C(=O)N[C@@H](CCCNC(=N)N)C(=O)N[C@@H](CC(N)=O)C(=O)N[C@@H](CCCCN)C(=O)Nc1ccc2c(CC(N)=O)cc(=O)oc2c1` [Ac-PRNK-ACC, Acetyl-Prolyl-Arginyl-Asparaginyl-Lysyl-aminoacetamide coumarin] (Ac-PRNK-{ACC}): the Km in assay [1] (setting [4]) was found to be 8.9 ± 0.9 µM; in assay [2] (setting [5]), 14.5 ± 1.9 µM.
On to `CC(=O)N1CCC[C@H]1C(=O)N[C@@H](CCCNC(=N)N)C(=O)N[C@@H](CC(N)=O)C(=O)N[C@@H](CCCNC(=N)N)C(=O)Nc1ccc2c(CC(N)=O)cc(=O)oc2c1` [Ac-PRNR-ACC] (Ac-PRNR-{ACC}), for which the results for the Km in assay [1] (setting [4]) and in assay [2] (setting [5]) were 16.5 ± 2.7 µM and 18.6 ± 2.6 µM, respectively. In addition, the “activity relative to Ac-PRNK-ACC substrate (kcat/Km)” value in assay [1] (tryptase βII, range stated over tryptase βI and βII) is 70-90%; in assay [2] (tryptase βI, range stated over tryptase βI and βII), 70-90%.
Turning to `CC(=O)N1CCC[C@H]1C(=O)N[C@@H](CCCNC(=N)N)C(=O)N[C@H](C(=O)N[C@@H](CCCCN)C(=O)Nc1ccc2c(CC(N)=O)cc(=O)oc2c1)[C@@H](C)O` [Ac-PRTK-ACC] (Ac-PRTK-{ACC}), the Km came out at 14.7 ± 1.4 µM in assay [1] (setting [4]) and 23.4 ± 2.3 µM in assay [2] (setting [5]).
Turning to “Ac-PANK-ACC: acetylated tetrapeptide P-A-N-K with C-terminal 7-amino-4-carbamoylmethyl-coumarin leaving group”, in assay [1] (setting [4]), the Km worked out at 110 ± 9.8 µM and the kcat came out at 20.27 ± 0.48 s⁻¹. Further, in assay [2] (setting [5]), the Km was determined as 133 ± 15.6 µM and the kcat worked out at 19.06 ± 0.64 s⁻¹.
As to aprotinin, the “effect on intrinsic fluorescence associated with non-tryptase proteolysis in serum” value in assay [3] was “significantly and specifically diminished”.

A word on the Km: it is the concentration of substrate that gives half-maximal velocity. The kcat is the maximal rate divided by the concentration of active sites.
